Reference: US10441568B2, “Nitroxide radicals for the treatment of diseases of the respiratory tract” (priority 2015, dated 2019)

What was measured:
[1] = Nitroxide concentration measurement by EPR in mouse blood and tissue; format: in vivo; conditions: mice
Method: Electron paramagnetic resonance (EPR) spectroscopy was used to determine residual levels of nitroxide in mouse tissue. Blood samples or tissue samples were diluted with 0.5 ml phosphate buffer (40 mM, pH 7.4) or water, inserted into a flexible capillary placed in a quartz tube installed within the EPR spectrometer cavity and assayed for residual nitroxide. A similar procedure was used to determine the residual nitroxide in tissue homogenates of various organs, which were corrected for blood contamination spectrophotometrically by following the absorption of oxyhemoglobin at 400-600 nm. Measured EPR signals were compared to those of a nitroxide standard solution.
In order to determine total hydroxylamine and nitroxide concentrations, 2 mM K3Fe(CN)6 was added to samples in order to oxidize hydroxylamines to the respective nitroxide, and the nitroxide level was determined by EPR spectroscopy as described hereinabove.
Control and experimental groups contained 10 mice each. The effects of the nitroxides were investigated by feeding the mice ad libitum a diet of nitroxide-containing chow (1 weight percent) during both ovalbumin (OVA)-induced sensitization and challenging periods (days −2-19), during the sensitization period (days −2-11) or challenge period (days 13-19). Nitroxide-containing chow were prepared by dissolving 500 grams chow in a minimum volume of water containing 5 grams nitroxide and 5 grams commercial chicken soup powder, preparing the chow and drying it at 37° C. (animals were reluctant to eat nitroxide-containing chow until chicken soup powder was added).
3-CP was also administered using 3 daily intraperitoneal (IP) injections (200 μl, 0.15 M, ˜300 mg/kg) 0.5 hour prior to the challenge with OVA aerosol, or by nasal instillation (50 μl, 0.3 M, ˜150 mg/kg) twice a day 0.5 hour prior to the challenge with OVA aerosol and 6 hours later without exceeding its maximally tolerated dose, which has been previously established to be 300-500 mg/kg. Both 3-CP and TPL were non-toxic when administered orally or via IP injection to untreated OVA-challenged mice for 22 days.

[2] = tested on: IL-13; test: IL-13 level in OVA asthma model; format: in vivo, BALB/c mice; conditions: for IL-13 level: lung tissue (table title)
Method: All experimental procedures were carried out in accordance with the NIH Guidelines for the Care and Use of Laboratory Animals. Specific pathogen-free (SPF) male BALB/c mice (6-7 weeks of age, 18-22 grams), routinely screened serologically for relevant respiratory pathogens, were maintained in an animal housing facility for 1 week before use and given access to food and water ad libitum. Animals were randomly assigned to the indicated experimental groups, and sensitized with two intraperitoneal (IP) injections (20 μg ovalbumin (OVA) emulsified in 2 mg aluminum hydroxide (an adjuvant) in 200 μl phosphate buffer saline (PBS), pH 7.4), on days 1 and 10.
After another week, the animals were challenged by exposure to ovalbumin (OVA) aerosol (1%, w/v, in PBS) for 30 minutes each day on days 17, 18 and 19, in order to elicit an inflammatory reaction in the lungs characterized by airway hyper-responsiveness (AHR), an influx of inflammatory cells (particularly eosinophils), and increased pulmonary levels of various cytokines and transforming growth factors, protein nitration and lipid peroxidation.
Bronchoalveolar lavage (BAL) fluid (also referred to herein as “BALf”) and bronchial submucosal inflammation are characteristic features of asthma. Mice were euthanized with an overdose of 50 mg/kg pentobarbital and ice-cold phosphate buffer saline (PBS) (0.6 ml) was instilled into the lungs. BAL fluid was obtained by three aspirations via tracheal cannulation, centrifuged, and the supernatant collected and stored at −70° C. Cell pellets were re-suspended in PBS and 100 μl aliquots placed onto slides and centrifuged (200 g, 4° C., 10 minutes) in a cytospin machine. Induction of oxidative stress was evaluated using a 2′,7′-dichlorofluorescein fluorescence assay, and total IgE, IgG2a, panel of cytokines, transforming growth factors, collagen, protein nitration and lipid peroxidation were measured using commercial kits according to the manufacturer's recommendations. A Sircol™ collagen assay kit was obtained from Biocolor Life Sciences Assays, a protein nitration assay kit was obtained from Abcam, and other assay kits were obtained from PeproTech Asia.
The efficacy of oral administration of 3-CP (1 weight percent in chow) during the sensitization period and/or challenge period was then compared to IP injection (˜300 mg/kg, 0.5 hour before the OVA challenge) or intranasal instillation (˜150 mg/kg, 0.5 hour before the OVA and 6 hours later) of 3-CP, as well as to dexamethasone treatment (1 mg/kg, 3 daily IP injections, 0.5 hour prior to the challenge with OVA aerosol).
In order to assess the effect of 3-CP on inflammatory signaling pathways, […] to procedures described hereinabove, upon oral, intranasal or IP administration of 3-CP.

[3] = tested on: mucin production; test: Mucin production by PAS staining of lung tissue, OVA asthma model; format: in vivo, mice
Method: Following aspiration of BAL as described hereinabove, a thoracotomy was performed, and the right main bronchus was tied. The left lung was fixed by means of intrabronchial infusion with 1 ml of 4% formaldehyde, and then immersed in fixative (10% (v/v) neutral buffered formalin) for 24 hours at 4° C. Transverse sections of the left lung were embedded in paraffin, and […] sections were stained with hematoxylin and eosin (H&E) by Hadassah Hospital Pathology Service (Jerusalem, Israel). In addition, periodic acid-Schiff (PAS) staining was performed on lung tissue, and the degree of mucin production was measured from PAS staining.
In order to evaluate the effect of 3-CP on lung pathology, animals in an ovalbumin-induced asthma model were treated with 3-CP, and killed by abdominal aortic transaction and exsanguination, according to procedures described hereinabove. Lung tissue was examined by hematoxylin and eosin (H&E) staining, the degree of mucin production was determined from periodic-acid-Schiff (PAS) staining.

[4] = tested on: mice with OVA-induced chronic asthma; test: Inflammatory cell counts in BAL fluid, severe (chronic) asthma model; format: in vivo
Method: In a longer (chronic) murine model, mice were challenged 3 times a week for 4-5 weeks.
Bronchoalveolar lavage (BAL) fluid (also referred to herein as “BALf”) and bronchial submucosal inflammation are characteristic features of asthma. Mice were euthanized with an overdose of 50 mg/kg pentobarbital and ice-cold phosphate buffer saline (PBS) (0.6 ml) was instilled into the lungs. BAL fluid was obtained by three aspirations via tracheal cannulation, centrifuged, and the supernatant collected and stored at −70° C. Cell pellets were re-suspended in PBS and 100 μl aliquots placed onto slides and centrifuged (200 g, 4° C., 10 minutes) in a cytospin machine. Induction of oxidative stress was evaluated using a 2′,7′-dichlorofluorescein fluorescence assay, and total IgE, IgG2a, panel of cytokines, transforming growth factors, collagen, protein nitration and lipid peroxidation were measured using commercial kits according to the manufacturer's recommendations. […]
3-CP was administered orally (1 weight percent in chow) during the entire experiment, and dexamethasone (Dex) was administered via IP injection (1 mg/kg) one hour before each challenge. Inflammatory cell counts and pulmonary collagen content were then evaluated according to procedures described hereinabove, in order to assess effects on inflammation and remodeling, respectively.

[5] = nasal instillation (50 μL, 0.3 M), FIG. 2
[6] = oral administration (1 weight percent nitroxide in chow), FIG. 1
[7] = stated after the oral administration data

## CC1(C)CC(C(N)=O)C(C)(C)N1[O] (centres unmarked) [3-CP, 3-Carbamoyl-2,2,5,5-tetramethyl-pyrrolidin-1-oxyl]
[1]; data not shown
  residual concentration of the respective hydroxylamine compared with the nitroxide: higher than those of the therapeutically active nitroxide free radical
[1]; [5]
  absolute concentration in lung tissue relative to blood: about twice the concentration in the blood
  half-life of reduction/clearance from blood and lung tissue: about 80 minutes
  time course of residual concentration in blood and lung tissue: decreased exponentially with time
[1]; [6]
  blood concentration, 3-CP compared with TPL: higher than TPL blood concentrations
  residual concentration of nitroxide in blood: detectable levels
[1]; [7]
  residual concentration in the lungs compared with other organs: significantly higher than in the heart, spleen, liver, kidney and brain
  residual concentration in the lungs relative to that in the blood: about 65%
[2]; FIG. 7D and Table 1
  reducing IL-13 level, oral 3-CP compared with intranasal 3-CP and IP dexamethasone: more effective than intranasal instillation of 3-CP and IP injection of dexamethasone
[2]; OVA IN-C: 3-CP intranasal during challenge
  IL-13 level: 1.99 ng/mg
[2]; OVA IP-C: 3-CP intraperitoneal during challenge
  IL-13 level: 1.38 ng/mg
[2]; OVA oral-C: 3-CP oral during challenge
  IL-13 level: 2.01 ng/mg
[2]; OVA oral-S&C: 3-CP oral during sensitization and challenge
  IL-13 level: 1.67 ng/mg
[2]; OVA oral-S: 3-CP oral during sensitization
  IL-13 level: 2.20 ng/mg
[2]; lung tissue, FIG. 7D and Table 1
  effect on OVA-induced increase in the level of IL-13: inhibited
[2]; oral administration vs IP injection
  modulating IL-13 level, oral compared with IP 3-CP: consistently more effective than IP injection of 3-CP
[3]; 3-CP via all tested modes of delivery, FIGS. 10 and 11
  effect on mucin levels, PAS scoring: reduced the mucin levels
[3]; FIG. 10
  reducing mucin levels, 3-CP compared with dexamethasone: at least as effective as dexamethasone
[4]; 3-CP oral 1 weight percent in chow during entire experiment, 4 weeks OVA challenge, FIGS. 15A and 15B
  effect on inflammatory cell counts in BAL fluid: reduced inflammatory cell counts, and especially eosinophil counts
[4]; 3-CP oral, dexamethasone 1 mg/kg IP before each challenge
  reducing BAL inflammatory cell counts, 3-CP compared with dexamethasone: at least as effective as dexamethasone
